# Laboratory results from patent publication US9687479B2, “Multisubstituted aromatic compounds as serine protease inhibitors” (VERSEON CORPORATION, priority 2013, dated 2017).
# Where two headings read alike, the source gives them in different places.
# Molecular target: Human thrombin (Homo sapiens (Human), UniProt P00734)
# Experiment: Thrombin protease activity inhibition assay (chromogenic substrate S-2238)
# Type: biochemical
# Description: The thrombin activity reported herein (e.g., Table A) was obtained as follows. […] Thrombin was assayed in buffer containing 0.05 M Tris (pH 7.4), 0.015 M NaCl and 0.01% PEG-8000. The final concentration of enzyme used was 3 nM thrombin. […] All assays were performed in 96-well microtiter plates at room temperature (RT). […] Inhibitor IC50 values were determined by adding test compound as ten point, three-fold serial dilutions in buffer solution, as known in the art. The plate was read at 10 minutes after substrate addition. The IC50 was calculated by plotting the percent (%) inhibition against compound concentration and fitting the data to a constrained four parameter sigmoidal curve, as known in the art.
# [1] = 3 nM thrombin, 125 μM S-2238, 10 min pre-incubation, RT
SMILES,IC50 [1] [nM],IC50 [nM]
"O=C(c1ccoc1)n1nc(-c2cccn(Cc3cccc(Cl)c3)c2=O)cc1NCc1ccc(Cl)s1 [Cmpd 33, 1-[(3-chlorophenyl)methyl]-3-(5-[(5-chlorothiophen-2-yl)methyl]amino-1-[(furan-3-yl)carbonyl]-1H-pyrazol-3-yl)-1,2-dihydropyridin-2-one]",< 100,
"Nc1cc(-c2ccc[nH]c2=O)n[nH]1 [Cmpd 1, 3-(5-amino-1H-pyrazol-3-yl)-1,2-dihydropyridin-2-one]",,> 100000
"O=C(c1cccc2c1OCCO2)n1nc(-c2cccn(Cc3ccco3)c2=O)cc1NCc1ccc(Cl)s1 [Cmpd 110, 3-(5-[(5-chlorothiophen-2-yl)methyl]amino-1-[(2,3-dihydro-1,4-benzodioxin-5-yl)carbonyl]-1H-pyrazol-3-yl)-1-(furan-2-ylmethyl)-1,2-dihydropyridin-2-one]",< 100,
"CC(C)(C)C(=O)n1nc(-c2cccn(CC(=O)N3CCOCC3)c2=O)cc1NCc1ccc(Cl)s1 [Cmpd 88, 3-(5-[(5-chlorothiophen-2-yl)methyl]amino-1-(2,2-dimethylpropanoyl)-1H-pyrazol-3-yl)-1-[2-(morpholin-4-yl)-2-oxoethyl]-1,2-dihydropyridin-2-one]",< 100,
"COCCn1cccc(-c2cc(NCc3ccc(Cl)s3)n(C(=O)C(C)(C)C)n2)c1=O [Cmpd 75, 3-(5-[(5-chlorothiophen-2-yl)methyl]amino-1-(2,2-dimethylpropanoyl)-1H-pyrazol-3-yl)-1-(2-methoxyethyl)-1,2-dihydropyridin-2-one]",< 100,
"O=c1c(-c2cc(NCc3ccc(Cl)s3)[nH]n2)cccn1Cc1nnn[nH]1 [Cmpd 219, 3-(5-[(5-chlorothiophen-2-yl)methyl]amino-1H-pyrazol-3-yl)-1-(1H-1,2,3,4-tetrazol-5-ylmethyl)-1,2-dihydropyridin-2-one]",10000 to 100000,
"O=C(c1ccsc1)n1nc(-c2cccn(CCN3CCOCC3)c2=O)cc1NCc1ccc(Cl)s1 [Cmpd 204, 3-(5-[(5-chlorothiophen-2-yl)methyl]amino-1-[(thiophen-3-yl)carbonyl]-1H-pyrazol-3-yl)-1-[2-(morpholin-4-yl)ethyl]-1,2-dihydropyridin-2-one]",< 100,
"O=c1c(-c2cc(NCc3ccc(Cl)s3)[nH]n2)cccn1Cc1ccoc1 [Cmpd 223, 3-(5-[(5-chlorothiophen-2-yl)methyl]amino-1H-pyrazol-3-yl)-1-(furan-3-ylmethyl)-1,2-dihydropyridin-2-one]",1000 to 10000,
"Cn1cccc(-c2cc(NCc3ccc(Cl)s3)n(C(=O)c3cccc4c3OCCO4)n2)c1=O [Cmpd 120, 3-(5-[(5-chlorothiophen-2-yl)methyl]amino-1-[(2,3-dihydro-1,4-benzodioxin-5-yl)carbonyl]-1H-pyrazol-3-yl)-1-methyl-1,2-dihydropyridin-2-one]",< 100,
"O=C(c1ccsc1)n1nc(-c2cccn(Cc3cccnc3)c2=O)cc1NCc1ccc(Cl)s1 [Cmpd 199, 3-(5-[(5-chlorothiophen-2-yl)methyl]amino-1-[(thiophen-3-yl)carbonyl]-1H-pyrazol-3-yl)-1-(pyridin-3-ylmethyl)-1,2-dihydropyridin-2-one]",> 100000,
"CC(C)(C)C(=O)n1nc(-c2cccn(CCN3CCOCC3)c2=O)cc1NCc1ccc(Cl)s1 [Cmpd 89, 3-(5-[(5-chlorothiophen-2-yl)methyl]amino-1-(2,2-dimethylpropanoyl)-1H-pyrazol-3-yl)-1-[2-(morpholin-4-yl)ethyl]-1,2-dihydropyridin-2-one]",< 100,
"O=C(Cn1cccc(-c2cc(NCc3ccc(Cl)s3)n[nH]2)c1=O)N1CCOCC1 [Cmpd 233, 3-(5-[(5-chlorothiophen-2-yl)methyl]amino-1H-pyrazol-3-yl)-1-[2-(morpholin-4-yl)-2-oxoethyl]-1,2-dihydropyridin-2-one]",1000 to 10000,
"Nc1cc(-c2cccn(Cc3ccccn3)c2=O)nn1C(=O)c1ccco1 [Cmpd 256, 3-5-amino-1-[(furan-2-yl)carbonyl]-1H-pyrazol-3-yl-1-(pyridin-2-ylmethyl)-1,2-dihydropyridin-2-one]",1000 to 10000,
"CCOC(=O)Cn1cccc(-c2cc(NCc3ccc(Cl)s3)n(C(=O)c3ccoc3)n2)c1=O [Cmpd 259, ethyl 2-[3-(5-[(5-chlorothiophen-2-yl)methyl]amino-1-[(furan-3-yl)carbonyl]-1H-pyrazol-3-yl)-2-oxo-1,2-dihydropyridin-1-yl]acetate]",< 100,
"O=C(c1ccc(N2CCOCC2)cc1)n1nc(-c2cccn(Cc3cccnn3)c2=O)cc1NCc1ccc(Cl)s1 [Cmpd 211, 3-(5-[(5-chlorothiophen-2-yl)methyl]amino-1-[4-(morpholin-4-yl)phenyl]carbonyl-1H-pyrazol-3-yl)-1-(pyridazin-3-ylmethyl)-1,2-dihydropyridin-2-one]",< 100,
"O=C(c1ccccc1Cl)n1nc(-c2cccn(Cc3ccccn3)c2=O)cc1NCc1ccc(Cl)s1 [Cmpd 246, 3-1-[(2-chlorophenyl)carbonyl]-5-[(5-chlorothiophen-2-yl)methyl]amino-1H-pyrazol-3-yl-1-(pyridin-2-ylmethyl)-1,2-dihydropyridin-2-one]",< 100,
"CC(C)(C)C(=O)n1nc(-c2cccn(Cc3ccncc3)c2=O)cc1NCc1ccc(Cl)s1 [Cmpd 84, 3-(5-[(5-chlorothiophen-2-yl)methyl]amino-1-(2,2-dimethylpropanoyl)-1H-pyrazol-3-yl)-1-(pyridin-4-ylmethyl)-1,2-dihydropyridin-2-one]",< 100,
"O=C(c1ccoc1)n1nc(-c2cccn(Cc3ccncc3)c2=O)cc1NCc1ccc(Cl)s1 [Cmpd 6, 3-(5-[(5-chlorothiophen-2-yl)methyl]amino-1-[(furan-3-yl)carbonyl]-1H-pyrazol-3-yl)-1-(pyridin-4-ylmethyl)-1,2-dihydropyridin-2-one]",< 100,
"COc1ccc(C(=O)n2nc(-c3cccn(Cc4cccs4)c3=O)cc2NCc2ccc(Cl)s2)c(OC)c1 [Cmpd 129, 3-(5-[(5-chlorothiophen-2-yl)methyl]amino-1-[(2,4-dimethoxyphenyl)carbonyl]-1H-pyrazol-3-yl)-1-(thiophen-2-ylmethyl)-1,2-dihydropyridin-2-one]",< 100,
"CC(C)(C)C(=O)n1nc(-c2cccn(Cc3cccnc3)c2=O)cc1NCc1ccc(Cl)s1 [Cmpd 83, 3-(5-[(5-chlorothiophen-2-yl)methyl]amino-1-(2,2-dimethylpropanoyl)-1H-pyrazol-3-yl)-1-(pyridin-3-ylmethyl)-1,2-dihydropyridin-2-one]",< 100,
"O=C(c1ccco1)n1nc(-c2cccn(Cc3ncccn3)c2=O)cc1NCc1ccc(Cl)s1 [Cmpd 167, 3-(5-[(5-chlorothiophen-2-yl)methyl]amino-1-[(furan-2-yl)carbonyl]-1H-pyrazol-3-yl)-1-(pyrimidin-2-ylmethyl)-1,2-dihydropyridin-2-one]",< 100,
"CC(C)(C)C(=O)n1nc(-c2cccn(Cc3ccc(Cl)cc3)c2=O)cc1NCc1ccc(Cl)s1 [Cmpd 35, 1-[(4-chlorophenyl)methyl]-3-(5-[(5-chlorothiophen-2-yl)methyl]amino-1-(2,2-dimethylpropanoyl)-1H-pyrazol-3-yl)-1,2-dihydropyridin-2-one]",< 100,
"COc1ccccc1C(=O)n1nc(-c2cccn(Cc3ccc(Cl)cc3)c2=O)cc1NCc1ccc(Cl)s1 [Cmpd 36, 1-[(4-chlorophenyl)methyl]-3-(5-[(5-chlorothiophen-2-yl)methyl]amino-1-[(2-methoxyphenyl)carbonyl]-1H-pyrazol-3-yl)-1,2-dihydropyridin-2-one]",< 100,
"CC(C)(CO)C(=O)n1nc(-c2ccc[nH]c2=O)cc1NCc1ccc(Cl)s1 [Cmpd 91, 3-(5-[(5-chlorothiophen-2-yl)methyl]amino-1-(3-hydroxy-2,2-dimethylpropanoyl)-1H-pyrazol-3-yl)-1,2-dihydropyridin-2-one]",< 100,
"O=C(c1ccccc1)n1nc(-c2cccn(Cc3ccco3)c2=O)cc1NCc1ccc(Cl)s1 [Cmpd 63, 3-(1-benzoyl-5-[(5-chlorothiophen-2-yl)methyl]amino-1H-pyrazol-3-yl)-1-(furan-2-ylmethyl)-1,2-dihydropyridin-2-one]",< 100,
"O=C(c1ccoc1)n1nc(-c2cccn(Cc3cccnn3)c2=O)cc1NCc1ccc(Cl)s1 [Cmpd 176, 3-(5-[(5-chlorothiophen-2-yl)methyl]amino-1-[(furan-3-yl)carbonyl]-1H-pyrazol-3-yl)-1-(pyridazin-3-ylmethyl)-1,2-dihydropyridin-2-one]",< 100,
"COc1ccccc1C(=O)n1nc(-c2cccn(Cc3ccc4ccccc4c3)c2=O)cc1NCc1ccc(Cl)s1 [Cmpd 137, 3-(5-[(5-chlorothiophen-2-yl)methyl]amino-1-[(2-methoxyphenyl)carbonyl]-1H-pyrazol-3-yl)-1-(naphthalen-2-ylmethyl)-1,2-dihydropyridin-2-one]",< 100,
"O=c1c(-c2cc(NCc3ccc(Cl)s3)[nH]n2)cccn1Cc1ncccn1 [Cmpd 230, 3-(5-[(5-chlorothiophen-2-yl)methyl]amino-1H-pyrazol-3-yl)-1-(pyrimidin-2-ylmethyl)-1,2-dihydropyridin-2-one]",> 100000,
"CC(C)(CO)C(=O)n1nc(-c2cccn(Cc3cccs3)c2=O)cc1NCc1ccc(Cl)s1 [Cmpd 95, 3-(5-[(5-chlorothiophen-2-yl)methyl]amino-1-(3-hydroxy-2,2-dimethylpropanoyl)-1H-pyrazol-3-yl)-1-(thiophen-2-ylmethyl)-1,2-dihydropyridin-2-one]",< 100,
"O=C(c1ccsc1)n1nc(-c2cccn(Cc3ccncc3)c2=O)cc1NCc1ccc(Cl)s1 [Cmpd 200, 3-(5-[(5-chlorothiophen-2-yl)methyl]amino-1-[(thiophen-3-yl)carbonyl]-1H-pyrazol-3-yl)-1-(pyridin-4-ylmethyl)-1,2-dihydropyridin-2-one]",< 100,
